Usually IC50 stands for the point on the concentration scale where inhibition reaches its midpoint.

Data set [1] can be described thus: Liver microsomal stability (extraction ratio). The class given is in vitro ADME, mouse, rat, and human. Particulars: test compound 1 μM, 0.5 mg/mL liver microsomes, NADPH 1 mM, 37° C.; ER = predicted hepatic clearance / species blood flow; species not given. As for the experimental part:
Protocol for Liver Microsomal Stability (Extraction Ratio)
Liver Microsomal Stability. Microsomal stability studies (Chrovian et al, “1H-Pyrrolo[3,2-b]pyridine GluN2B-Selective Negative Allosteric Modulators”. ACS Med Chem Lett. 2019 Jan. 10; 10(3):261-266) were conducted on a Biomek® FX Robotic Liquid Handling Workstation (Beckman Coulter, Brea, Calif.), which consists of a 96-channel pipette head, a 12-postion workstation deck, and a plate incubator. Test compounds (1 μm) were spiked in a reaction mix consisting of 100 mM potassium phosphate buffer (pH 7.4), 3 mM MgCl2, and 0.5 mg/mL liver microsomes from mouse, rat, and human (BD Gentest). The reaction was brought to 37° C. and initiated by adding NADPH to a final concentration of 1 mM. After mixing on the platedeck, 50 µL aliquots were excised from the reaction plate at 0, 5, 10, 20, 40, and 60 min and quenched with four volumes of acetonitrile spiked with […] of the internal standard phenytoin. Quenched plates were centrifuged at 5700 rpm for 10 min at 4° C., and supernatant was diluted 1:3 in water before LC/MS/MS analysis. The compound half-lives were derived from plots of the ln of percent remaining compound over time to determine the intrinsic clearance. The predicted hepatic clearance was derived from the intrinsic clearance value using equations from the well-stirred model (Current Drug Metabolism, 2008, 9, 940-951), where no correction was made plasma protein binding and the blood to plasma concentration ratio was assumed to be one.

Data set [2] deals with T1, human GluN1/GluN2B NMDA receptors (Homo sapiens, UniProt Q13224).
T1 construct: expressed in transfected cells
T1 sequence (Q13224 27-1484, other chains not shown): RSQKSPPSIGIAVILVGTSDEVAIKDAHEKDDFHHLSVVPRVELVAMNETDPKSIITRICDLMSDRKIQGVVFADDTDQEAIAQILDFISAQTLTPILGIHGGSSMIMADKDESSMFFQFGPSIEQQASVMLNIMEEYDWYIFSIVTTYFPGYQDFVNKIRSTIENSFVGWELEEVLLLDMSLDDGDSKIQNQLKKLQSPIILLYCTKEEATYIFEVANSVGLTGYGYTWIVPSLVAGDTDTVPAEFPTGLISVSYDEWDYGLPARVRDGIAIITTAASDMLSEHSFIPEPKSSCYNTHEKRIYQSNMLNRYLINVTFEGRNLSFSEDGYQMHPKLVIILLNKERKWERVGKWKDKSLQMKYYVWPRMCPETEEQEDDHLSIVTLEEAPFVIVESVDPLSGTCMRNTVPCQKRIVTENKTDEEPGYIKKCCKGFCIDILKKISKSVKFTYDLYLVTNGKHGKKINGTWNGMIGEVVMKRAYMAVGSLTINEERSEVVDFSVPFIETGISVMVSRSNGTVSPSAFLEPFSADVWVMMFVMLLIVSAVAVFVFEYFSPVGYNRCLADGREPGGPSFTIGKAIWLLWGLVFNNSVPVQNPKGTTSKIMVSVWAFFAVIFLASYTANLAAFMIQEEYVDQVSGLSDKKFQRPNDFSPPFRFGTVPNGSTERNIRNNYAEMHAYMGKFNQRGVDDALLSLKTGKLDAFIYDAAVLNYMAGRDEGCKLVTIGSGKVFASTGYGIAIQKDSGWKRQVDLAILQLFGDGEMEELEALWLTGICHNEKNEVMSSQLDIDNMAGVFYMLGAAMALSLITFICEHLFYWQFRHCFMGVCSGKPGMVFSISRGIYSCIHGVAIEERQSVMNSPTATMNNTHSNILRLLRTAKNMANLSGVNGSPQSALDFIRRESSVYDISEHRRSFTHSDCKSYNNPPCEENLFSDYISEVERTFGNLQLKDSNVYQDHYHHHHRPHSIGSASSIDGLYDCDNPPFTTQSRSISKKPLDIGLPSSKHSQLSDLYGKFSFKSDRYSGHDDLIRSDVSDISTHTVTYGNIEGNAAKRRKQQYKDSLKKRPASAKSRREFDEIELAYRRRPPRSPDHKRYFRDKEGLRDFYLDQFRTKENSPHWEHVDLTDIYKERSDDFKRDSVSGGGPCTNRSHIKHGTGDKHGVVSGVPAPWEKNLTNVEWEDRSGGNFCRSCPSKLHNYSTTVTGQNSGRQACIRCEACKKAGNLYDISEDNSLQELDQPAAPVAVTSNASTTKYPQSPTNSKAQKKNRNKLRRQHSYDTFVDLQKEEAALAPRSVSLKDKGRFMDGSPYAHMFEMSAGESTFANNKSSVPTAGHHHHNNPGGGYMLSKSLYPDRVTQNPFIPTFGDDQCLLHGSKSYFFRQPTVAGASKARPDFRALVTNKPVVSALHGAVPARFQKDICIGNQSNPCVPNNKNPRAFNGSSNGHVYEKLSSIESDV
As to the kind of experiment: Calcium flux (FLIPR) assay on cloned human NR1/GluN2B ion channels expressed in mammalian cells (standard and HTS variants). To be noted: cells expressing human GluN1/GluN2B, glutamate and glycine co-agonists. Type of data set: cell-based. Put shortly:
(§1)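 Calcium influx read by FLIPR after co-agonist addition (glycine 10 μM, glutamate near EC40) following 5 min compound preincubation, with signal normalized to control wells.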
(Calcium assays in cells follow changes in intracellular calcium, usually with a dye or a luminescent sensor.)

Data set [3] addresses T2, human GluN1/GluN2B NMDA receptors (Homo sapiens, UniProt Q05586+Q13224).
T2 construct: expressed in transfected cells
The description is as above. The class given is cell-based. To be noted: cells expressing human GluN1/GluN2B, glutamate and glycine co-agonists. Put shortly: as §1

Each structure is given as a SMILES string. Bounds are passed on as bounds.

T2 sequence (Q13224 27-1484, other chains not shown): as above

Consider `Fc1cncc(Cn2ncc3ncc(-c4ccc(F)c(C(F)F)c4)cc32)c1` [Example 202, 6-[3-(Difluoromethyl)-4-fluoro-phenyl]-1-[(5-fluoro-3-pyridyl)methyl]pyrazolo[4,3-b]pyridine], for which the “Extraction Ratio @ 1 μM” value in data set [1] was 0.57. Moreover, the IC50 in data set [2] was 14 nM.

Regarding `COc1nnc(Cn2ncc3ncc(-c4ccc(F)c(OC(F)F)c4)cc32)s1` [Example 134, 2-[[6-[3-(difluoromethoxy)-4-fluoro-phenyl]pyrazolo[4,3-b]pyridin-1-yl]methyl]-5-methoxy-1,3,4-thiadiazole], the IC50 in data set [3] was 1320 nM.

Regarding `Cc1nnc(Cn2ncc3ncc(-c4ccc(F)c(C(F)F)c4)cc32)o1` [Example 10, 2-[[6-[3-(Difluoromethyl)-4-fluoro-phenyl]pyrazolo[4,3-b]pyridin-1-yl]methyl]-5-methyl-1,3,4-oxadiazole], the “Extraction Ratio @ 1 μM” value in data set [1] is 0.31. In data set [2], the IC50 came out at 19 nM.

For `Fc1ccc(-c2cnc3cnn(Cc4cccnn4)c3c2)cc1C(F)F` [Example 261, 6-[3-(Difluoromethyl)-4-fluoro-phenyl]-1-(pyridazin-3-ylmethyl)pyrazolo[4,3-b]pyridine], the “Extraction Ratio @ 1 μM” value in data set [1] is below 0.298. Besides, the IC50 in data set [2] came to 23 nM.

As to `Fc1ccc(-c2cnc3cnn(Cc4cccnc4)c3c2)cc1C(F)F` [Example 198, 6-[3-(Difluoromethyl)-4-fluoro-phenyl]-1-(3-pyridylmethyl)pyrazolo[4,3-b]pyridine], the “Extraction Ratio @ 1 μM” value in data set [1] was 0.65. Besides, in data set [2], the IC50 worked out at 8 nM.

For the compound `Cc1cc(Cn2ncc3ncc(-c4ccc(F)c(C(F)F)c4)cc32)on1` [Example 52, 5-[[6-[3-(Difluoromethyl)-4-fluoro-phenyl]pyrazolo[4,3-b]pyridin-1-yl]methyl]-3-methyl-isoxazole], the “Extraction Ratio @ 1 μM” value in data set [1] was 0.69. For the same compound, the IC50 in data set [2] came to 22 nM.

Consider `Cc1nc(Cn2ncc3ncc(-c4ccc(F)c(C(F)F)c4)cc32)no1` [Example 97, 3-[[6-[3-(Difluoromethyl)-4-fluoro-phenyl]pyrazolo[4,3-b]pyridin-1-yl]methyl]-5-methyl-1,2,4-oxadiazole], for which the “Extraction Ratio @ 1 μM” value in data set [1] is 0.42. The IC50 in data set [2] was determined as 41 nM.

As to `[2H]c1nn(Cc2nnc(C)o2)c2cc(-c3ccc(F)c(C(F)F)c3)cnc12` [compound 297, 2-[[3-Deuterio-6-[3-(difluoromethyl)-4-fluoro-phenyl]pyrazolo [4,3-b]pyridin-1-yl]methyl]-5-methyl-1,3,4-oxadiazole], the IC50 in data set [3] turned out to be 24 nM.

Regarding `CC(F)(F)c1cccc(-c2cnc3cnn(Cc4cccnc4)c3c2)c1` [Example 12, 6-[3-(1,1-Difluoroethyl)phenyl]-1-(3-pyridylmethyl)pyrazolo[4,3-b]pyridine], the IC50 in data set [3] was determined as 26 nM.

Take `Cc1nnc(Cn2ncc3ncc(-c4ccc(F)c(C(F)F)c4)cc32)s1` [Example 122, 2-[[6-[3-(Difluoromethyl)-4-fluoro-phenyl]pyrazolo[4,3-b]pyridin-1-yl]methyl]-5-methyl-1,3,4-thiadiazole]: the “Extraction Ratio @ 1 μM” value in data set [1] was 0.60. In data set [2], the IC50 was 18 nM.

Take `Cc1cnc(Cn2ncc3ncc(-c4ccc(F)c(C(F)F)c4)cc32)o1` [Example 8, 2-[[6-[3-(Difluoromethyl)-4-fluoro-phenyl]pyrazolo[4,3-b]pyridin-1-yl]methyl]-5-methyl-oxazole]: the “Extraction Ratio @ 1 μM” value in data set [1] is reported as 0.68. In data set [2], the IC50 was determined as 28 nM.

For `CC(F)(F)c1cc(-c2cnc3cnn(Cc4cn[nH]c4)c3c2)ccc1F` [Example 40, 6-[3-(1,1-Difluoroethyl)-4-fluoro-phenyl]-1-(1H-pyrazol-4-ylmethyl)pyrazolo[4,3-b]pyridine], the IC50 in data set [3] was determined as 825 nM.

`Fc1ccc(-c2cnc3cnn(Cc4cncnc4)c3c2)cc1C(F)F` [Example 275, 6-[3-(Difluoromethyl)-4-fluoro-phenyl]-1-(pyrimidin-5-ylmethyl)pyrazolo[4,3-b]pyridine]: the “Extraction Ratio @ 1 μM” value in data set [1] is on record as 0.36. In addition, the IC50 in data set [2] is 12 nM.

As for `Cc1nnc(Cn2nc(F)c3ncc(-c4ccc(F)c(C(F)F)c4)cc32)o1` [Example 96, 2-[[6-[3-(Difluoromethyl)-4-fluoro-phenyl]-3-fluoro-pyrazolo[4,3-b]pyridin-1-yl]methyl]-5-methyl-1,3,4-oxadiazole], the “Extraction Ratio @ 1 μM” value in data set [1] is below 0.298. Moreover, the IC50 in data set [2] stood at 38 nM.

For the compound `Fc1ccc(-c2cnc3cnn(Cc4nnc(C(F)(F)F)o4)c3c2)cc1OC(F)F` [Example 115, 2-[[6-[3-(Difluoromethoxy)-4-fluoro-phenyl]pyrazolo[4,3-b]pyridin-1-yl]methyl]-5-(trifluoromethyl)-1,3,4-oxadiazole], the IC50 in data set [2] was found to be 414 nM.

For the compound `CC(F)(F)c1cc(-c2cnc3cnn(Cc4cncc(Cl)c4)c3c2)ccc1Cl` [Example 237, 6-[4-Chloro-3-(1,1-difluoroethyl)phenyl]-1-[(5-chloro-3-pyridyl)methyl]pyrazolo[4,3-b]pyridine], in data set [2], the IC50 stood at 200 nM.

(Values after patent US11530210B2, “Substituted heteroaromatic pyrazolo-pyridines and their use as GLUN2B receptor modulators” (JANSSEN PHARMACEUTICA NV, priority 2019, dated 2022).)
